Tests used:
[1] = tested on: peritoneum; assay: Chronic peritoneal dialysis in rats, peritoneal equilibrium test (PET); format: in vivo, rat; settings: rats dialysed daily for four weeks with PDF, aliskiren 0.1 or 1 mg/Kg, FIGS. 12 and 13
Description: The rats were exposed daily for four weeks to carrier (saline serum), 1.5% PDF, 2.3% PDF or 4.5% PDF supplemented by carrier, 0.1 mg/Kg aliskiren or 1 mg/Kg aliskiren. The data are expressed as mean±SEM, n=6 rats per group. * p<0.05, compared to the group treated with carrier in the absence of aliskiren (carrier). # p<0.05, compared to their respective groups treated with PDFs in the absence of aliskiren. […] The rats were exposed daily for four weeks to carrier (saline serum), 1.5% PDF, 2.3% PDF or 4.5% PDF supplemented by carrier, 0.1 mg/Kg aliskiren or 1 mg/Kg aliskiren. The data is expressed as mean media±SEM, n=6 rats per group. * p<0.05, compared to the group treated with carrier in the absence of aliskiren (carrier). # p<0.05, compared to their respective groups treated with PDFs in the absence of aliskiren. […] Their body weight was measured at the start and end of the experimental period. […] The concentrations of creatinine and glucose in the serum and dialysate were measured using enzymatic methods. The peritoneal transport of solutes was calculated, on one hand, as the glucose concentration in the dialysate 2 hours after the PET relative to the initial glucose concentration in the PDF (D2/D0 glucose) and, on the other, as the dialysate/plasma creatinine concentration ratio (D2/P2 creatinine) 2 h after the PET. […]

[2] = tested on: p53; assay: Real-time RT-PCR in PMCs from dialysed rats; format: in vivo, rat; settings: peritoneal cells from rats dialysed four weeks, aliskiren 0.1 or 1 mg/Kg, FIG. 14
Description: The rats were exposed daily for four weeks to carrier (saline serum), 1.5% PDF, 2.3% PDF or 4.5% PDF supplemented by, 0.1 mg/Kg aliskiren or 1 mg/Kg aliskiren. The data is expressed as mean±SEM, n=6 rats per group. * p<0.05, compared to the group treated with carrier in the absence of aliskiren (carrier). # p<0.05, compared to their respective groups treated with PDFs in the absence of aliskiren. […]
At the end of the experimental period (four weeks), 30 ml of a commercial PDF with 2.3% glucose (Fresenius Medical Car, Bad Homburg, Germany) was administered intraperitoneally using a 22G needle. […] Their body weight was measured at the start and end of the experimental period. […]
The blood and dialysate samples were centrifuged and stored at −20° C. The concentrations of creatinine and glucose in the serum and dialysate were measured using enzymatic methods. The peritoneal transport of solutes was calculated, on one hand, as the glucose concentration in the dialysate 2 hours after the PET relative to the initial glucose concentration in the PDF (D2/D0 glucose) and, on the other, as the dialysate/plasma creatinine concentration ratio (D2/P2 creatinine) 2 h after the PET. […]
The RNA expression was evaluated by real-time RT-PCR in PMCs. […] RNA quality and concentration was evaluated by spectrophotometry (Infinite 200, Tecan, Salzburg, Austria) using 1 μl of the RNA sample. […]

## COCCCOc1cc(C[C@@H](C[C@H](N)[C@@H](O)C[C@H](C(=O)NCC(C)(C)C(N)=O)C(C)C)C(C)C)ccc1OC [aliskiren]
[1]
  peritoneal damage in vivo (D2/D0 glucose, D2/P2 creatinine): reduced peritoneal damage
[2]
  RNAm expression of pro-apoptotic protein p53: reduced
